Source: patent publication US6096930A, “Herbicidal cyclohexane-1,3-dione derivatives and their preparation process” (Korea Research Institute of Chemical Technology, priority 1994, dated 2000)
Read-outs that look alike come from different tables or passages of the source.

Key:
Assay in all cases: Herbicidal activity for paddy test
Format in all cases: in vivo
ORYSA = settings: for plant injury at 2 g/ha: 0.002 kg/ha; for plant injury at 8 g/ha: 0.008 kg/ha; for plant injury at 31 g/ha: 0.031 kg/ha; for plant injury at 125 g/ha: 0.125 kg/ha; for plant injury at 500 g/ha: 0.500 kg/ha
From the text: (§1) The sterilized sandy loam soil is filled in test pot having a surface area of 348 cm^2 for upland test conditions or 115 cm^2 for paddy test species were planted in furrows.
(§2) The herbicidal activity data were taken visually by percent control, wherein 0 signifies no herbicidal effect and 100 signifies complete kill.

SCPJU = settings: for pest or weed control at 2 g/ha: 0.002 kg/ha; for pest or weed control at 8 g/ha: 0.008 kg/ha; for pest or weed control at 31 g/ha: 0.031 kg/ha; for pest or weed control at 125 g/ha: 0.125 kg/ha; for pest or weed control at 500 g/ha: 0.500 kg/ha
From the text: as §1, §2

ECHOR = settings: for pest or weed control at 2 g/ha: 0.002 kg/ha; for pest or weed control at 8 g/ha: 0.008 kg/ha; for pest or weed control at 31 g/ha: 0.031 kg/ha; for pest or weed control at 125 g/ha: 0.125 kg/ha; for pest or weed control at 500 g/ha: 0.500 kg/ha
From the text: as §1, §2

SAGPY = settings: for pest or weed control at 2 g/ha: 0.002 kg/ha; for pest or weed control at 8 g/ha: 0.008 kg/ha; for pest or weed control at 31 g/ha: 0.031 kg/ha; for pest or weed control at 125 g/ha: 0.125 kg/ha; for pest or weed control at 500 g/ha: 0.500 kg/ha
From the text: as §1, §2

MOOVA = settings: for pest or weed control at 2 g/ha: 0.002 kg/ha; for pest or weed control at 8 g/ha: 0.008 kg/ha; for pest or weed control at 31 g/ha: 0.031 kg/ha; for pest or weed control at 125 g/ha: 0.125 kg/ha; for pest or weed control at 500 g/ha: 0.500 kg/ha
From the text: as §1, §2

[1] = 3 Leaf, read-out: Herbicidal activity, ORYSA (3 Leaf)
[2] = seed, read-out: Herbicidal activity, ORYSA (seed)

SMILES | plant injury at 2 g/ha (ORYSA; [1]) [%] | plant injury at 8 g/ha (ORYSA; [1]) [%] | plant injury at 31 g/ha (ORYSA; [1]) [%] | plant injury at 125 g/ha (ORYSA; [1]) [%] | plant injury at 500 g/ha (ORYSA; [1]) [%] | plant injury at 2 g/ha (ORYSA; [2]) [%] | plant injury at 8 g/ha (ORYSA; [2]) [%] | plant injury at 31 g/ha (ORYSA; [2]) [%] | plant injury at 125 g/ha (ORYSA; [2]) [%] | plant injury at 500 g/ha (ORYSA; [2]) [%] | pest or weed control at 2 g/ha (SCPJU) [%] | pest or weed control at 8 g/ha (SCPJU) [%] | pest or weed control at 31 g/ha (SCPJU) [%] | pest or weed control at 125 g/ha (SCPJU) [%] | pest or weed control at 500 g/ha (SCPJU) [%] | pest or weed control at 2 g/ha (ECHOR) [%] | pest or weed control at 8 g/ha (ECHOR) [%] | pest or weed control at 31 g/ha (ECHOR) [%] | pest or weed control at 125 g/ha (ECHOR) [%] | pest or weed control at 500 g/ha (ECHOR) [%] | other results
CCC(=NOC)C1=C(O)CC(c2c(C)c3c(c(C)c2Cl)CC(C)(C)C3)CC1=O (stereo not drawn) [Compound 21] | 0 | 0 | 0 | 80 | 100 | 20 | 100 | 100 | 100 | 100 | 0 | 0 | 0 | 0 | 0 | 40 | 95 | 100 | 100 | 100 | pest or weed control at 2 g/ha (SAGPY): 0%; pest or weed control at 8 g/ha (SAGPY): 0%; pest or weed control at 31 g/ha (SAGPY): 0%; pest or weed control at 125 g/ha (SAGPY): 0%; pest or weed control at 500 g/ha (SAGPY): 0%; pest or weed control at 2 g/ha (MOOVA): 0%; pest or weed control at 8 g/ha (MOOVA): 30%; pest or weed control at 31 g/ha (MOOVA): 50%; pest or weed control at 125 g/ha (MOOVA): 60%; pest or weed control at 500 g/ha (MOOVA): 70%
CCON=C(CC)C1=C(O)CC(c2c(C)c3c(c(C)c2Cl)CC(C)(C)C3)CC1=O (stereo not drawn) [Compound 22] | 0 | 0 | 0 | 20 | 100 | 0 | 0 | 100 | 100 | 100 | 0 | 0 | 0 | 0 | 0 | 0 | 95 | 100 | 100 | 100 | pest or weed control at 2 g/ha (SAGPY): 0%; pest or weed control at 8 g/ha (SAGPY): 0%; pest or weed control at 31 g/ha (SAGPY): 0%; pest or weed control at 125 g/ha (SAGPY): 0%; pest or weed control at 500 g/ha (SAGPY): 0%; pest or weed control at 2 g/ha (MOOVA): 0%; pest or weed control at 8 g/ha (MOOVA): 0%; pest or weed control at 31 g/ha (MOOVA): 0%; pest or weed control at 125 g/ha (MOOVA): 0%; pest or weed control at 500 g/ha (MOOVA): 60%
C=CCON=C(CC)C1=C(O)CC(c2c(C)c3c(c(C)c2Cl)CC(C)(C)C3)CC1=O (stereo not drawn) [Compound 23] | 0 | 0 | 0 | 0 | 60 | 0 | 10 | 100 | 100 | 100 | 0 | 0 | 0 | 0 | 0 | 0 | 40 | 100 | 100 | 100 | pest or weed control at 2 g/ha (SAGPY): 0%; pest or weed control at 8 g/ha (SAGPY): 0%; pest or weed control at 31 g/ha (SAGPY): 0%; pest or weed control at 125 g/ha (SAGPY): 0%; pest or weed control at 500 g/ha (SAGPY): 0%; pest or weed control at 2 g/ha (MOOVA): 0%; pest or weed control at 8 g/ha (MOOVA): 0%; pest or weed control at 31 g/ha (MOOVA): 0%; pest or weed control at 125 g/ha (MOOVA): 0%; pest or weed control at 500 g/ha (MOOVA): 0%
CCCC(=NOC)C1=C(O)CC(c2c(C)c3c(c(C)c2Cl)CC(C)(C)C3)CC1=O (stereo not drawn) [Compound 25] | 0 | 0 | 0 | 0 | 50 | 0 | 0 | 60 | 100 | 100 | 0 | 0 | 0 | 0 | 0 | 0 | 0 | 100 | 100 | 100 | pest or weed control at 2 g/ha (SAGPY): 0%; pest or weed control at 8 g/ha (SAGPY): 0%; pest or weed control at 31 g/ha (SAGPY): 0%; pest or weed control at 125 g/ha (SAGPY): 0%; pest or weed control at 500 g/ha (SAGPY): 0%; pest or weed control at 2 g/ha (MOOVA): 0%; pest or weed control at 8 g/ha (MOOVA): 0%; pest or weed control at 31 g/ha (MOOVA): 0%; pest or weed control at 125 g/ha (MOOVA): 0%; pest or weed control at 500 g/ha (MOOVA): 0%
CCCC(=NOCC)C1=C(O)CC(c2c(C)c3c(c(C)c2Cl)CC(C)(C)C3)CC1=O (stereo not drawn) [Compound 26, 5-(6-Chloro-2,2,4,7-tetramethylindan-5-yl)-2-[1-(ethoxyimino)butyl]-3-hydroxycyclohex-2-en-1-one] | 0 | 0 | 0 | 0 | 30 | 0 | 0 | 20 | 100 | 100 | 0 | 0 | 0 | 0 | 40 | 0 | 0 | 100 | 100 | 100 | pest or weed control at 2 g/ha (SAGPY): 0%; pest or weed control at 8 g/ha (SAGPY): 0%; pest or weed control at 31 g/ha (SAGPY): 0%; pest or weed control at 125 g/ha (SAGPY): 0%; pest or weed control at 500 g/ha (SAGPY): 0%; pest or weed control at 2 g/ha (MOOVA): 0%; pest or weed control at 8 g/ha (MOOVA): 0%; pest or weed control at 31 g/ha (MOOVA): 0%; pest or weed control at 125 g/ha (MOOVA): 0%; pest or weed control at 500 g/ha (MOOVA): 0%
C=CCON=C(CCC)C1=C(O)CC(c2c(C)c3c(c(C)c2Cl)CC(C)(C)C3)CC1=O (stereo not drawn) [Compound 27] | 0 | 0 | 0 | 0 | 0 | 0 | 0 | 0 | 100 | 100 | 0 | 0 | 0 | 0 | 0 | 0 | 0 | 50 | 100 | 100 | pest or weed control at 2 g/ha (SAGPY): 0%; pest or weed control at 8 g/ha (SAGPY): 0%; pest or weed control at 31 g/ha (SAGPY): 0%; pest or weed control at 125 g/ha (SAGPY): 0%; pest or weed control at 500 g/ha (SAGPY): 0%; pest or weed control at 2 g/ha (MOOVA): 0%; pest or weed control at 8 g/ha (MOOVA): 0%; pest or weed control at 31 g/ha (MOOVA): 0%; pest or weed control at 125 g/ha (MOOVA): 0%; pest or weed control at 500 g/ha (MOOVA): 0%
